Test [1] concerns the target Serotonin 2 (5-HT2) receptor (Homo sapiens, UniProt P41595+P28223+P28335). Kind of test: Displacement of [3H]ketanserin from 5-hydroxytryptamine 2 receptor. The test is classed as protein assay. (In general: Displacement assays read how much labelled ligand stays bound in the presence of the test substance.)
The next test deals with D(2) dopamine receptor (Homo sapiens, UniProt P14416). Description: Displacement of [3H]-spiperone from dopamine D2 receptor.
Chain of D(2) dopamine receptor (P14416 whole entry): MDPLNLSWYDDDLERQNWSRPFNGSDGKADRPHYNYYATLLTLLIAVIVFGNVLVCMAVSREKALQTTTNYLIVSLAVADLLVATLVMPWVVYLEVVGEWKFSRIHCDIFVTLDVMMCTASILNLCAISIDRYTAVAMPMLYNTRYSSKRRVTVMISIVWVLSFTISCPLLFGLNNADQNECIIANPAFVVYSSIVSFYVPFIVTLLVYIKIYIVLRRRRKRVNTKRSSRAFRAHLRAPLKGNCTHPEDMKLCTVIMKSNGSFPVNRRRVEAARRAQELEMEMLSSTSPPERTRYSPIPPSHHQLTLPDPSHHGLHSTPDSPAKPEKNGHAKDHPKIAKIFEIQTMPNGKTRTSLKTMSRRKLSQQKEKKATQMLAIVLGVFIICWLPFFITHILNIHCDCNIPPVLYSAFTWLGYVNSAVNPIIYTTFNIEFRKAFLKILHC

Regarding `C(#Cc1ccccc1)CNC1CCN(Cc2ccccc2)CC1.O=C(O)/C=C/C(=O)O`, the inhibition constant Ki – broadly, a measure of affinity in units of concentration, obtained from inhibition or displacement – in test [1] was 3.3 µM. Also, the IC50 (commonly the midpoint of a concentration-inhibition curve) on D(2) dopamine receptor is over 10 µM.
With `O=C(C#Cc1ccccc1)NC1CCN(Cc2ccccc2)CC1.O=C(O)/C=C/C(=O)O`, the Ki in test [1] came out at 0.28 µM. At D(2) dopamine receptor, this molecule came in with an IC50 of 2.5 µM.
For the molecule `C(=C\c1ccccc1)/CNC1CCN(Cc2ccccc2)CC1.O=C(O)/C=C/C(=O)O`, in test [1], the inhibition constant Ki came out at 4.6 µM. The molecule further returned a concentration for half-maximal inhibition (IC50) on D(2) dopamine receptor of over 10 µM.
Molecule `C(#Cc1ccccc1)CN(c1ccccc1)C1CCN(Cc2ccccc2)CC1.O=C(O)/C=C/C(=O)O` returned a Ki in test [1] of 0.28 µM. On D(2) dopamine receptor, the 50% inhibitory concentration (IC50) is 0.89 µM.
In test [1], `CN(C/C=C/c1ccccc1)C1CCN(Cc2ccccc2)CC1.O=C(O)/C=C/C(=O)O` gave a Ki of 0.84 µM. The molecule further registered an IC50 at D(2) dopamine receptor of over 10 µM.
Molecule `CN(C(=O)/C=C/c1ccccc1)C1CCN(Cc2ccccc2)CC1.O=C(O)/C=C/C(=O)O` showed a Ki in test [1] of 1.5 µM. The IC50 on D(2) dopamine receptor came out at 7.1 µM.
Taken in the same sequence, the figures for `CN(CC#Cc1ccccc1)C1CCN(Cc2ccccc2)CC1.O=C(O)/C=C/C(=O)O` were 0.32 µM and 4.1 µM.
Taken in the same sequence, the figures for `CN(C(=O)C#Cc1ccccc1)C1CCN(Cc2ccccc2)CC1.O=C(O)/C=C/C(=O)O` were 1.7 µM and 4.9 µM.
As for `C(=C\c1ccccc1)/CN(c1ccccc1)C1CCN(Cc2ccccc2)CC1.O=C(O)/C=C/C(=O)O`, the Ki in test [1] was over 10 µM. At D(2) dopamine receptor, this molecule showed a half-maximal inhibitory concentration (IC50) of over 10 µM.
With `C(=C\c1ccccc1)/CN(C/C=C/c1ccccc1)C1CCN(Cc2ccccc2)CC1.O=C(O)/C=C/C(=O)O`, in test [1], the Ki was 0.55 µM. At D(2) dopamine receptor, this molecule yielded a half-inhibitory concentration (IC50) of over 10 µM.
Taken in the same sequence, the figures for `O=C(/C=C/c1ccccc1)NC1CCN(Cc2ccccc2)CC1.O=C(O)/C=C/C(=O)O` were 0.1 µM and 4.7 µM.

Source of the values: ChEMBL document CHEMBL1127992, “Novel conformationally restricted aromatic piperidines as selective sigma receptor ligands” (Bioorg Med Chem Lett, 1994).
